Values joined by “and” are separate entries in the source; they are usually repeats but may differ in a detail not shown here. Equal values may be shown once. Active and inactive are the calls of the source.
What was measured:
[1] = biological target: G-protein coupled receptor 55 (Homo sapiens, UniProt Q9Y2T6); assay: GPR55 agonists via beta-arrestin recruitment, primary screen, imaging, U2OS cells, beta-arrestin-GFP redistribution (AID 1961); type: functional
[2] = biological target: T1, Alkaline phosphatase, tissue-nonspecific isozyme (Homo sapiens, UniProt P05186); assay: TNAP enzyme activators, dose response, selectivity assay for human IAP activator project, biochemical, TNAP isozyme, human IAP uHTS hits (AID 488886); type: functional;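 further: potency of compounds raising TNAP activity as a selectivity check on IAP activators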
T1 sequence (P05186 whole entry): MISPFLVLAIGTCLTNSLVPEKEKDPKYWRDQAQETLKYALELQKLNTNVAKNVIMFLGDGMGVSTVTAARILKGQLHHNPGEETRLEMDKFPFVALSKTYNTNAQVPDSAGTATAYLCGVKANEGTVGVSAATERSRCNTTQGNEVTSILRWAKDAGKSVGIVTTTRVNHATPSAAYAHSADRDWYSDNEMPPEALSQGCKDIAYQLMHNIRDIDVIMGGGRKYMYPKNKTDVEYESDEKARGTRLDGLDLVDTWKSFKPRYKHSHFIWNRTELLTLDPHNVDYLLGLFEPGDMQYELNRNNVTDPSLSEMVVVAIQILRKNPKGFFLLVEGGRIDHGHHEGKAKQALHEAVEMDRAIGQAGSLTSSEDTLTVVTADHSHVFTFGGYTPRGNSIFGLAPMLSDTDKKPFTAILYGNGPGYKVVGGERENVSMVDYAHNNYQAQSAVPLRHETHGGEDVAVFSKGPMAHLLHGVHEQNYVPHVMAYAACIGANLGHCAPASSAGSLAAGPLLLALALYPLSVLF

[3] = biological target: T1, Alkaline phosphatase, tissue-nonspecific isozyme; assay: TNAP enzyme inhibition by screening hits, dose response, selectivity assay for mouse IAP inhibitor project, biochemical, human TNAP, uHTS hits (AID 488906); type: functional
[4] = biological target: T2, Intestinal-type alkaline phosphatase (Homo sapiens, UniProt P09923); assay: human intestinal alkaline phosphatase activators, dose response, biochemical, luminescence, uHTS hits (AID 463120); type: functional
[5] = biological target: T2, Intestinal-type alkaline phosphatase; assay: activation of human intestinal alkaline phosphatase – biochemical, dose response (AID 488873); type: functional
[6] = biological target: T3, Intestinal-type alkaline phosphatase (Mus musculus, UniProt P24822); assay: PubChem AID 488875; type: functional
[7] = biological target: T3, Intestinal-type alkaline phosphatase; assay: PubChem AID 488785; type: functional
[8] = biological target: T2, Intestinal-type alkaline phosphatase; assay: human IAP activators, dose response, biochemical, luminescent, uHTS hits, set 2 (AID 488817); type: functional;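 further: potency of activators that raise enzyme activity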
[9] = biological target: T4, Type-1 angiotensin II receptor (Homo sapiens, UniProt P30556); assay: AT1 receptor agonists, dose response, selectivity assay for APJ receptor agonist project, cell-based, uHTS hits (AID 488865); type: functional;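 further: beta-arrestin recruitment to AT1 measured by enzyme fragment complementation luminescence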
T4 sequence (P30556 whole entry): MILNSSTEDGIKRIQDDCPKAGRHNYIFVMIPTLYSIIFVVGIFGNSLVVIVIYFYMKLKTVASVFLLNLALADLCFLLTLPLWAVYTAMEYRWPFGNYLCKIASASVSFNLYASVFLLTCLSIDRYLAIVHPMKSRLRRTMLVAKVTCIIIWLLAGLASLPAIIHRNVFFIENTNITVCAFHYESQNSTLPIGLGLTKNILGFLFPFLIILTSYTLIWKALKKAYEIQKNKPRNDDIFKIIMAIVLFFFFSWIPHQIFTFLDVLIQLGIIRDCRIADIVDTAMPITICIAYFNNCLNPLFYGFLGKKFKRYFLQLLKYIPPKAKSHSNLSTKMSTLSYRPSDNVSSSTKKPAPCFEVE

[10] = biological target: Sphingosine 1-phosphate receptor 1 (Homo sapiens, UniProt P21453); assay: Fluorescence-based counterscreen assay for S1P4 agonists: Cell-based dose response high throughput screening assay to identify agonists of the Sphingosine 1-Phosphate Receptor 1 (S1P1). [Related pubchem assays (depositor defined):AID1509, AID1523, AID1801, AID463107, AID463118, AID463119, AID463122, AID463123, AID463129, AID463225, AID504400, AID504460]; type: functional
[11] = biological target: Sphingosine 1-phosphate receptor 4 (Homo sapiens, UniProt O95977); assay: Fluorescence dose response cell-based high throughput screening assay for agonists of the Sphingosine 1-Phosphate Receptor 4 (S1P4). [Related pubchem assays: 1509 (Primary screen.), 1523 (Confirmation screen in triplicates.)]; type: functional
[12] = biological target: T5, Dual specificity protein phosphatase 3 (Homo sapiens, UniProt P51452); assay: VHR1 phosphatase inhibitors, biochemical (AID 1878)
[13] = biological target: T5, Dual specificity protein phosphatase 3; assay: MOA VHR1 Fluorescent secondary assay for identification of redox-state modulating compounds. [Related pubchem assays (depositor defined):AID1654, AID1661, AID1878, AID1957]
[14] = biological target: Tyrosine-protein phosphatase non-receptor type 11 (Homo sapiens, UniProt Q06124); assay: SHP2 phosphatase inhibition, dose response, selectivity assay for STEP inhibitor project, biochemical (AID 602367); type: functional; details: read-out: IC50_Mean
[15] = biological target: T5, Dual specificity protein phosphatase 3; assay: VHR phosphatase inhibition, dose response, selectivity assay for STEP inhibitor project, biochemical (AID 602374); type: functional; details: read-out: IC50_Mean
[16] = biological target: T6, Tyrosine-protein phosphatase non-receptor type 7 (Homo sapiens, UniProt P35236); assay: redox-dependent HePTP inhibition, mechanism study, biochemical, fluorescence (AID 2068); type: functional
T6 sequence (P35236 whole entry): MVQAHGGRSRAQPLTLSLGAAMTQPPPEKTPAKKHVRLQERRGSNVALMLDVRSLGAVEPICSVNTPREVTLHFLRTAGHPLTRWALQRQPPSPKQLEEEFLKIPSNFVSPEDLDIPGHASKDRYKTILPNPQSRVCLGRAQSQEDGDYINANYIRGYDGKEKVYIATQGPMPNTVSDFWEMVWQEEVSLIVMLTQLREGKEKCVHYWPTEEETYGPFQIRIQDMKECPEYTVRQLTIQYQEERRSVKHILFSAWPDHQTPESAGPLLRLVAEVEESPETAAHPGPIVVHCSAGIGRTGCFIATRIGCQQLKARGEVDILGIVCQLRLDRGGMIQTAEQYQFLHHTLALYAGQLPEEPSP

[17] = biological target: T5, Dual specificity protein phosphatase 3; assay: VHR1 phosphatase inhibitors, primary screen, biochemical, absorbance, uHTS (AID 1654)
[18] = biological target: T7, Polyadenylate-binding protein 1 (Homo sapiens, UniProt P11940); assay: PABP1 MLLE–PAM2 binding inhibitor potency, dose response, biochemical, fluorescence polarization, FITC-PAM2 peptide (AID 602259); type: functional; details: read-out: IC50_Mean
[19] = biological target: Tyrosine-protein phosphatase non-receptor type 5 (Homo sapiens, UniProt P54829); assay: STEP phosphatase inhibitors, confirmation, biochemical, fluorescence intensity, uHTS hits (AID 602372); type: functional; details: read-out: IC50_Mean
[20] = biological target: T8, Dual specificity protein phosphatase 6 (Rattus norvegicus, UniProt Q64346); type: functional;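 further: confirmatory in vitro dose-response testing of MKP-3 inhibition; recombinant His-tagged MKP-3 made in E. coli BL21 with OMFP substrate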
T8 sequence (Q64346 whole entry): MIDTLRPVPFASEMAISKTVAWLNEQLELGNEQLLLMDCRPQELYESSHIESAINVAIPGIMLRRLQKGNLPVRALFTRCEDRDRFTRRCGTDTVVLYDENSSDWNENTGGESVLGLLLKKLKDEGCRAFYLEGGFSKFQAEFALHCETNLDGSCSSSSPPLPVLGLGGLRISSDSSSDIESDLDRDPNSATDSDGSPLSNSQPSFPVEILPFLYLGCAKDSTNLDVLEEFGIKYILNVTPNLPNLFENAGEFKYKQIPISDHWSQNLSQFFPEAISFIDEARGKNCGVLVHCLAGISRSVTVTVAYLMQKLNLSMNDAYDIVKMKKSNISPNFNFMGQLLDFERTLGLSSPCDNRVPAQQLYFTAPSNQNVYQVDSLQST

[21] = biological target: T8, Dual specificity protein phosphatase 6; assay: MKP-3 phosphatase inhibitors, primary screen, biochemical, rat enzyme, in vitro (AID 425)
[22] = biological target: T7, Polyadenylate-binding protein 1; assay: PABP1 MLLE–PAM2 interaction inhibitors, dose response, miRNA deadenylation inhibitor project, biochemical, fluorescence polarization, Cy5-PAM2 peptide, secondary (AID 602260); type: functional; details: read-out: IC50_Mean
[23] = biological target: T5, Dual specificity protein phosphatase 3; assay: SAR VHR1 absorbance Assay for In Vitro dose response studies. [Related pubchem assays (depositor defined):AID1654, AID1661, AID1878, AID1992, AID2004]
[24] = biological target: T5, Dual specificity protein phosphatase 3; assay: SAR VHR1 Fluorescent Assay for In Vitro dose response studies. [Related pubchem assays (depositor defined):AID1654, AID1661, AID1878, AID1992, AID2004, AID2070, AID2085]; type: functional
[25] = biological target: Voltage-dependent T-type calcium channel subunit alpha-1H (Homo sapiens, UniProt O95180); assay: Cav3.2 T-type channel blockers, cell-based, SynthLib3 library, HEK293 Cav3.2, fluorescence (AID 493041); type: functional

T2 sequence (P09923 whole entry): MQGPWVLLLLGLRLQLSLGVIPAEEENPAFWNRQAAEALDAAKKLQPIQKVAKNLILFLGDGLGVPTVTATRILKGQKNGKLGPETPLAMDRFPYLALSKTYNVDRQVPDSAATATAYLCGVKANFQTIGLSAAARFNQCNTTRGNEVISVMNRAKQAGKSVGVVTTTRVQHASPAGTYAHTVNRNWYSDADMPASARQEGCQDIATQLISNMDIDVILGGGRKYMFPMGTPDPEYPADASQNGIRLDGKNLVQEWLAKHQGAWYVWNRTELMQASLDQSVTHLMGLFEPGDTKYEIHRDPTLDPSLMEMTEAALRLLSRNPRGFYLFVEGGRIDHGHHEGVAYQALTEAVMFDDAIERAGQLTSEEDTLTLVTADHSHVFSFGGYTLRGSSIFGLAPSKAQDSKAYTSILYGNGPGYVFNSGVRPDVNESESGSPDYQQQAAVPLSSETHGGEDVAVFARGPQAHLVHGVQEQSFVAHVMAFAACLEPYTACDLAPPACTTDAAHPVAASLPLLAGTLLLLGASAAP
T5 sequence (P51452 whole entry): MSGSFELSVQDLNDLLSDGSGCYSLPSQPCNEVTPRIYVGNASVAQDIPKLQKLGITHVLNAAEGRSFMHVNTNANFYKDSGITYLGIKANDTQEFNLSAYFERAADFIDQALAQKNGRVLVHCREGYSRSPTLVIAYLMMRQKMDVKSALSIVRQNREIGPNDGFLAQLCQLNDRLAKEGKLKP
T3 sequence (P24822 whole entry): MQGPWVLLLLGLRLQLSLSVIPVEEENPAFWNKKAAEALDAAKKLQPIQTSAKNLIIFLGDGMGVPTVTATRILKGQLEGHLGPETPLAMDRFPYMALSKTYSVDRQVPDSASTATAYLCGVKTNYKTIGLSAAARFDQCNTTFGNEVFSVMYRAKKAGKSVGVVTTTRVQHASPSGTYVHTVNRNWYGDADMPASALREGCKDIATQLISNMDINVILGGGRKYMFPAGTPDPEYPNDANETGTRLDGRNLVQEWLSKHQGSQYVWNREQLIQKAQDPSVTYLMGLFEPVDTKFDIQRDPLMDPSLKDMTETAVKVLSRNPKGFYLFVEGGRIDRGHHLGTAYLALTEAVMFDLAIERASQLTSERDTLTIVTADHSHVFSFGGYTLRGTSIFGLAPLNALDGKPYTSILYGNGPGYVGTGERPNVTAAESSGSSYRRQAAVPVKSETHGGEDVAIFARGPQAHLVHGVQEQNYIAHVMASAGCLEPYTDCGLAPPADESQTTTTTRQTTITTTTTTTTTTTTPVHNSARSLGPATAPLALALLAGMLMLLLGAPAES
T7 sequence (P11940 whole entry): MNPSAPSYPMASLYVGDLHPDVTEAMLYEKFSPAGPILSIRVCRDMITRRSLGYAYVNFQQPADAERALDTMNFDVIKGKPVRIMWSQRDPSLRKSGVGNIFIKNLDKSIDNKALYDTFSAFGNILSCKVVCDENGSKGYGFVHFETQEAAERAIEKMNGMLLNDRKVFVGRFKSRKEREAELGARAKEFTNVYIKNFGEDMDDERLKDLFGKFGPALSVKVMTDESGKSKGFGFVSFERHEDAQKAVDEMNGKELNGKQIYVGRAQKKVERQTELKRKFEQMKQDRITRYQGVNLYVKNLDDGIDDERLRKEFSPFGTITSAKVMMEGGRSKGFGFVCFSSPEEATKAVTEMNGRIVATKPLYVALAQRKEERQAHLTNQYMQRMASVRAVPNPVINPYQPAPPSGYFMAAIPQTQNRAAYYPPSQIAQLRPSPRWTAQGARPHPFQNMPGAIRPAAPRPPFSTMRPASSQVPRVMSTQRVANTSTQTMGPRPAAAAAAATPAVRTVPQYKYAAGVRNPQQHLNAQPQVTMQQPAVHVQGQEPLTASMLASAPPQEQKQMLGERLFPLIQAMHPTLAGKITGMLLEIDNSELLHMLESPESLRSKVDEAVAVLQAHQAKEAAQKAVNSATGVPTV
G-protein coupled receptor 55, sequence (Q9Y2T6 whole entry): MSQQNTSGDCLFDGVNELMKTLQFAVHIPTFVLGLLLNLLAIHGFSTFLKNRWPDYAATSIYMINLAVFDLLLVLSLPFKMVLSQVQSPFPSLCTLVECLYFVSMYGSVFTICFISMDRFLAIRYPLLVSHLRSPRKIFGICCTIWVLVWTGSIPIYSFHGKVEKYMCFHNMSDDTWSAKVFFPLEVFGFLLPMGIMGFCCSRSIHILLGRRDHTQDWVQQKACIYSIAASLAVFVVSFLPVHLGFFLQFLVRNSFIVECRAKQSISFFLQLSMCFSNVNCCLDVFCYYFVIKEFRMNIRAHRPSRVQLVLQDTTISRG
Tyrosine-protein phosphatase non-receptor type 11, sequence (Q06124 whole entry): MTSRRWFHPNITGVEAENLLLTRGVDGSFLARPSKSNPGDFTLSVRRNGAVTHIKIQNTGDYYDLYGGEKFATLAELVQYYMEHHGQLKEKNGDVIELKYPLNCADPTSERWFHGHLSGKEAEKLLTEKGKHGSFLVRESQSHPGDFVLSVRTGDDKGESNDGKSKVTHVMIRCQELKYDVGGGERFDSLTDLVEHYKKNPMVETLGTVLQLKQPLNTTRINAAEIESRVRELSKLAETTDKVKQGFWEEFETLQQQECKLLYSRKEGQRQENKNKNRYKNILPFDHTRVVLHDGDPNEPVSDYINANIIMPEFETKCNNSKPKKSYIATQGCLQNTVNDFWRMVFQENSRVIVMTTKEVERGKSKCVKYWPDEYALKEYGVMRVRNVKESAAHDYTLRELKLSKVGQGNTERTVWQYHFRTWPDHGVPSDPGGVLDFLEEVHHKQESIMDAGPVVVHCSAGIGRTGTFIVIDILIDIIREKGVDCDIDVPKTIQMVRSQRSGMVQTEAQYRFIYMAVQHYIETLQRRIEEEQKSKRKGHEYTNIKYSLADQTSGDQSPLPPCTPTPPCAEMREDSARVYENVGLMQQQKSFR
Tyrosine-protein phosphatase non-receptor type 5, sequence (P54829 whole entry): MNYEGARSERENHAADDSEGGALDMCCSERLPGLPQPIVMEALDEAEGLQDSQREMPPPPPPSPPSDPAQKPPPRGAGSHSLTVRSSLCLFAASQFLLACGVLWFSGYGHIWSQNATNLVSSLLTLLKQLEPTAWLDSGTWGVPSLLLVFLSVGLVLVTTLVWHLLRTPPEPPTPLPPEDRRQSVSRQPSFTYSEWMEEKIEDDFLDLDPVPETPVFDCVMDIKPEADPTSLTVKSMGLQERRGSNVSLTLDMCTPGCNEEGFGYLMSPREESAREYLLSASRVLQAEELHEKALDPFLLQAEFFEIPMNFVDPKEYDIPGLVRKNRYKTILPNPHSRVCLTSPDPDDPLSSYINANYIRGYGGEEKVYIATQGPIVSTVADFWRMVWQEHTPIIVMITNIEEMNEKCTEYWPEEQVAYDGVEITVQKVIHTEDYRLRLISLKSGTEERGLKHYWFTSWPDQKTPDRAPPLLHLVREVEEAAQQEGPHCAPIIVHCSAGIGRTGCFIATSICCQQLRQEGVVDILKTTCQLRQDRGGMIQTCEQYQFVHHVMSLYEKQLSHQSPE
Sphingosine 1-phosphate receptor 4, sequence (O95977 whole entry): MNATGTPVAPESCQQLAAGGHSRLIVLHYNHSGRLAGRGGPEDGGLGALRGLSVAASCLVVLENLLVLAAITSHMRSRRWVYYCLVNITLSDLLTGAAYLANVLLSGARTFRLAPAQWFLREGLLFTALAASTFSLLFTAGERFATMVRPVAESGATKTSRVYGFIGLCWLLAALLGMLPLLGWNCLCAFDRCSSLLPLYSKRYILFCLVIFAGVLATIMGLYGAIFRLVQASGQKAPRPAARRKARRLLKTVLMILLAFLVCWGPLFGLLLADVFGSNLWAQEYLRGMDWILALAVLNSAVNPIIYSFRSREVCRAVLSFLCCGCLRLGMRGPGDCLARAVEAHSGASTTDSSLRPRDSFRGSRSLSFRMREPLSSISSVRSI
Sphingosine 1-phosphate receptor 1, sequence (P21453 whole entry): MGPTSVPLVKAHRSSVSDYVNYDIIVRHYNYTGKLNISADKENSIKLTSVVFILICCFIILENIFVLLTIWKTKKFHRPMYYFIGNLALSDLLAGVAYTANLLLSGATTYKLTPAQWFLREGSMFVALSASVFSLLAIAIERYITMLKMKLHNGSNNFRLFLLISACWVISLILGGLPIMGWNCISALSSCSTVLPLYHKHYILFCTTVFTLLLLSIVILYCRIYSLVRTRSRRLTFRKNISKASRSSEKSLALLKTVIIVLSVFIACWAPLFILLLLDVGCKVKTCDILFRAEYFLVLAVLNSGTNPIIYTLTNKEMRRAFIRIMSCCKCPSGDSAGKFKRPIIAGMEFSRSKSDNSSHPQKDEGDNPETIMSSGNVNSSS

In the case of CCN(CC)S(=O)(=O)c1ccc(OC)c(NC(=O)C(C)Oc2ccc3c(C)cc(=O)oc3c2)c1 (stereo not given), the EC50 [1] is reported as 16.4 µM (inactive).
For CCn1nc(C)c(CN2CCC(C(=O)Nc3cccc(-c4cccc(F)c4)c3)CC2)c1C, the EC50 [2] was 54 µM (active), the IC50 [3] was 23.4 µM (active) and the EC50 [4] was 59.8 µM (active). For the same molecule, the EC50 [5] was > 100 µM (inactive), the EC50 [6] was 49.9 µM (active) and the IC50 [7] was 8.35 µM (active). The EC50 [8] was 52.9 µM (active).
COC(=O)CCCC1=CC2=CC(=O)C(C)(OC(=O)c3cccs3)C(=O)C2=CN1C1CCCCC1 (stereo not given) was tested, and the EC50 [9] was > 100 µM (inactive).
CNC(=O)c1[nH]cnc1C(=O)N[C@@H](CC(C)C)C(=O)OCc1ccccc1 was tested, and the EC50 [10] was 22 µM (inactive) and the EC50 [11] was 5.27 µM (active).
COc1cc(C(=S)N2CCCCC2)ccc1O was tested, and the IC50 [12] was 3.34 µM (active), the IC50 [13] was 127 nM (active) and 5.55 µM (active) and the IC50 [14] was 1.2 µM (active). For the same molecule, the IC50 [15] was 0.331 µM (active), the IC50 [16] was 84.6 nM (active) and 3.16 µM (active) and the IC50 [17] was 1.68 µM (active). For the same molecule, the IC50 [18] was > 66 µM (inactive), the IC50 [19] was 5.11 µM (active) and the IC50 [20] was > 100 µM (inactive). For the same molecule, the IC50 [21] was > 158 µM (not active), the IC50 [22] was > 66 µM (inactive) and the IC50 [23] was 0.958 µM (active). For the same molecule, the IC50 [24] was 366 nM (active) and > 100 µM (inactive).
With CC(Cc1nnc(NC(=O)COc2ccc(Cl)cc2Cl)o1)CC(C)(C)C (stereo not given) the EC50 [25] was 10 µM (active).

From ChEMBL document CHEMBL1201862, “PubChem BioAssay data set” (2004)
